Two sequences from patent US20020058636A1, “RIBOZYMES TARGETING THE RETROVIRAL PACKAGING SEQUENCE EXPRESSION CONSTRUCTS AND RECOMBINANT RETROVIRUSES CONTAINING SUCH CONSTRUCTS” (priority 1994, published 2002) can be followed below.

What all share (assay type): cell-based
In one data set the test system is HIV-1 IIIB. In words: BM12 antibody and ribozyme expression, p24 production in SupT1 cells. The following applies: BM12 Concentration 0.00 μg/ml. Here is the method: The anti-HIV-1 antibody BM12 has been tested for its potential combined effect with ribozymes on HIV-1 replication. Rz2 (a single ribozyme targeted to the HIV-1 tat gene) and SV2neo vector expressing SupT1 cells were infected with HIV-1 IIIB virus for 2 hr and then washed. The cells were resuspended in BM12 antibody containing medium (0, 0.5, 5, 50 μg BM12 antibody/ml) and incubated at 37° C., 5% CO2. Samples of medium were taken at days 3, 5, 9, 12 and 15 for p24 assays. Cytopathic effect (CPE) determined by syncytia formation was monitored at days 3, 6, 9, 12. […] The following Table 6 summarizes the p24 data at day 15.

The test system of data set [1] is HIV-1 (SF2). Nature of the data set: HIV-1 p24 antigen assay in ribozyme-expressing Sup T-1 cells. Here is the method:
Vector, is the control construct. Rz-2 and Rz-M are two ribozyme constructs targeted to the tat gene of HIV. Rz-M is a multi-ribozyme containing several ribozymes targeted to different sites within tat. This includes the site targeted by Rz-2.
(§1) Two assays, p24 antigen and syncytium formation, were performed to assess efficacy of the anti-HIV Psi ribozyme construct in cell culture. HIV-1 p24 antigen assay is an enzyme immunoassay, which uses a murine monoclonal antibody against HIV core antigen coated onto microwell strips. The HIV-1 syncytium assay is based on the observation that HIV-1 interacts with target T lymphocytes by causing fusion resulting in the formation of syncytia, large cells containing many nuclei. The clonal ribozyme-construct expressing cells, plus controls, were infected with HIV-1 (SF2) at m.o.i. of 0.1 to 1. After 2 hours, the cells were washed, and 10 ml of fresh media was added. Every 3-4 days, the number of both syncitia and viable cells were counted. […] In addition, the presence of the ribozyme caused a delay in syncitia formation (Table 4).
In another experimental protocol, the cells were pelleted, and an aliquot of the supernatant taken for p24 assay. In this experiment there was an inhibition of p24 levels to day 22 post challenge.

The subject of data set [2] is HIV-1 (SF2). Nature of the data set: Syncitia formation of infected SupT1 cells over days post infection. Here is the method: The anti-HIV packaging site construct, pSV-Rz-HIV-Psi, was electroporated into Sup T-1 cells, a human T lymphoma cell line. Exponentially growing cells were harvested and the number of viable cells counted by dye exclusion. The cells were washed with PBS and resuspended at a density of 1×10^7 viable cells/ml in RPMI media without FCS but containing 10 m,M dextrose and 0.1 mM dithiothreitol. 0.4 ml of the cell suspension and 10 μg of pSV-Rz-HIV-Psi plasmid DNA were used per electroporation in 0.4 cm cuvettes (Bio-Rad) . The cell and DNA mixture was subjected to a single pulse of 960 μF, 200V from a Gene Pulser (Bio-Rad) . After shocking, the cuvette was incubated for 10 minutes at room temperature, and the cells were then transferred to 10 ml of RPMI media with 10% FCS and placed into an incubator (5%CO2, 37° C.). At 48 hours post electroporation, the cells were selected in medium supplemented with 800 μg/ml G418. 9-12 days later, positive colonies were isolated and grown as clonal isolates to be used in a HIV protection assay.
as §1

On to “TTAGGATCCTGATGAGTCCGTGAGGACGAAACTGGCTC (chemistry not given here) [Rz-2, single ribozyme targeted to the HIV-1 tat gene]”, for which, in the data set on HIV-1 IIIB, the “p24 Production at Day 15” value came to 1.90 ng/mL. In the data set on HIV-1 (SF2) [1], the “inhibition of HIV-1 replication” value is recorded as “effective in inhibiting HIV-1 replication”.
With “GTCAAAAATTGGCGCTGATGAGTCCGTGAGGACGAAACTCACCAGTCGCCG (chemistry not given here) [Rz-Psi, single anti-HIV Psi packaging site ribozyme cloned into neo r gene of pSV2neo]”, the Syncitia formation result is listed as “− (−, no syncytia)” in the data set on HIV-1 (SF2) [2] (6 Days Post Infection); “− (−, no syncytia)” in the data set with HIV-1 (SF2) [2] (7 Days Post Infection); “− (−, no syncytia)” in the data set on HIV-1 (SF2) [2] (8 Days Post Infection); “− (−, no syncytia)” with HIV-1 (SF2) [2] (9 Days Post Infection); “− (−, no syncytia)” with HIV-1 (SF2) [2] (10 Days Post Infection); “− (−, no syncytia)” with HIV-1 (SF2) [2] (11 Days Post Infection).
